Laboratory results taken from US20060046982A1, “Orthomolecular medical use of L-citrulline for capillary endothelial protection and adjacent cell protection in neurodegenerative disease” (priority 2004, published 2006).

Key:
[1] = Case report: person taking L-citrulline capsules daily for 8 years; settings: donor one; long-term L-citrulline intake
[2] = test system: Human plasma Cohn fraction 1V-1 protein; experiment: Turbidimetric test of protein insolubility induced by Fenton-like reaction (ferrous sulfate + H2O2), nephelometer; format: biochemical; settings: amino acid at 400 microMol/L; 100 microMol/L ferrous sulfate + 40 microMol/L H2O2; pH 5.7-5.8; 37° Celsius, 30 minutes
Method: Human plasma Cohn fraction 1V-1 protein solutions (predominately alpha glycoglobulins, rich in lipid—obtained from Sigma Chemical Co.) of 40 mg/dl in saline solutions (140 NaCl mMol/L) were employed at existing pHs of 5.7-5.8 without additional confounding non-protein buffer. A nephelometer measured the intensity of reflected Tydall light. Developed turbidities were measured to quantify the insolubities of the dissolved proteins that were induced by introducing 100 microMol/L of ferrous sulfate and 40 microMol/L of H2O2 with incubations at 37° Celsius for 30 minutes. Insolubilities were standardized as the percent of maximal possible induced turbidities by comparison to similar protein solutions after mixing with the protein-precipitating agent sulfosalicylic acid at 1.5 g/dL.

Structure (SMILES)	Fasting blood glucose [1]	Hematocrit [1]	blood hemoglobin [1]	total leucocyte count [1]	mean inhibition of the insolubilities induced by the Fenton-like reactions [2]
NC(=O)NCCC[C@H](N)C(=O)O [L-citrulline]	within the normal range	38.5%	13.6 g/dL	6.800 /mcL	did not inhibit
NC(=O)CC[C@H](N)C(=O)O [L-glutamine]					did not inhibit
N[C@@H](Cc1c[nH]cn1)C(=O)O [L-histidine free base, L-histidine]					52.6%
